Test results: PubChem BioAssay AID2060890 (Molecular Pharmacology Branch, DTP, NCI, 2025)

Test system: LG0703-F948-PDC complex spheroid viability
Assay: Anticancer human tumor LG0703-F948-PDC patient-derived lung adenocarcinoma cell line growth inhibition [RAS]
Conditions: for IC50: curve of first compound; for viability, T/C: stronger effect = lower value; active = viability on the fitted dose curve at most 10% of control; inactive = the rest
Summary of the method: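 Agents were tested in combination matrices in half-log decrements from a top concentration at or near clinical Cmax (10 microM if undetermined). Targets were multi-cell spheroids of tumour lines plus HUVEC and MSC stromal cells.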

[1] = second compound 0.000949 µM, first compound 0.0316 µM
[2] = second compound 0.000949 µM, first compound 0.1 µM
[3] = second compound 0.000949 µM, first compound 0.316 µM
[4] = second compound 0.000949 µM, first compound 1 µM
[5] = second compound 0.000949 µM, first compound 3.16 µM
[6] = second compound 0.000949 µM, first compound 10 µM
[7] = second compound 0.003 µM, first compound 0.0316 µM
[8] = second compound 0.003 µM, first compound 0.1 µM
[9] = second compound 0.003 µM, first compound 0.316 µM
[10] = second compound 0.003 µM, first compound 1 µM
[11] = second compound 0.003 µM, first compound 3.16 µM
[12] = second compound 0.003 µM, first compound 10 µM
[13] = second compound 0.00949 µM, first compound 0.0316 µM
[14] = second compound 0.00949 µM, first compound 0.1 µM
[15] = second compound 0.00949 µM, first compound 0.316 µM
[16] = second compound 0.00949 µM, first compound 1 µM
[17] = second compound 0.00949 µM, first compound 3.16 µM
[18] = second compound 0.00949 µM, first compound 10 µM
[19] = second compound 0.03 µM, first compound 0.0316 µM
[20] = second compound 0.03 µM, first compound 0.1 µM
[21] = second compound 0.03 µM, first compound 0.316 µM
[22] = second compound 0.03 µM, first compound 1 µM
[23] = second compound 0.03 µM, first compound 3.16 µM
[24] = second compound 0.03 µM, first compound 10 µM
[25] = second compound 0.0949 µM, first compound 0.0316 µM
[26] = second compound 0.0949 µM, first compound 0.1 µM
[27] = second compound 0.0949 µM, first compound 0.316 µM
[28] = second compound 0.0949 µM, first compound 1 µM
[29] = second compound 0.0949 µM, first compound 3.16 µM
[30] = second compound 0.0949 µM, first compound 10 µM
[31] = second compound 0.3 µM, first compound 0.0316 µM
[32] = second compound 0.3 µM, first compound 0.1 µM
[33] = second compound 0.3 µM, first compound 0.316 µM
[34] = second compound 0.3 µM, first compound 1 µM
[35] = second compound 0.3 µM, first compound 3.16 µM
[36] = second compound 0.3 µM, first compound 10 µM
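Note: spheroids exposed to agents for 7 days.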
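Throughout, for viability, T/C: 100% = DMSO vehicle wells.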

CC1(O)CCCC1n1c(=O)c(C(F)F)cc2cnc(NC3CCN(S(C)(=O)=O)CC3)nc21 (stereo not given) + CCn1c(-c2cccnc2C(C)OC)c2c3cc(ccc31)N1CCOC(CC(NC(=O)C(C(C)C)N(C)C(=O)C3(F)CCN(C(=O)C#CC(C)(C)N(C)C)CC3)C(=O)N3CCCC(N3)C(=O)OCC(C)(C)C2)C1
9.59 µM: IC50 (second compound 0.00949 µM)
4.12 µM: IC50 (second compound 0.3 µM)
9.07 µM: IC50 (second compound 0.003 µM)
6.58 µM: IC50 (second compound 0.0949 µM)
> 10 µM: IC50 (second compound 0.000949 µM) | IC50 (second compound 0.03 µM)
inactive: viability, T/C [1] 112% | viability, T/C [2] 89.6% | viability, T/C [3] 97.3% | viability, T/C [4] 84.6% | viability, T/C [5] 85.4% | viability, T/C [6] 50% | viability, T/C [7] 114% | viability, T/C [8] 90.7% | viability, T/C [9] 108% | viability, T/C [10] 93.5% | viability, T/C [11] 82.2% | viability, T/C [12] 46.5% | viability, T/C [13] 88.9% | viability, T/C [14] 114% | viability, T/C [15] 94.1% | viability, T/C [16] 86.4% | viability, T/C [17] 87.5% | viability, T/C [18] 47.9% | viability, T/C [19] 112% | viability, T/C [20] 90.4% | viability, T/C [21] 90% | viability, T/C [22] 84.4% | viability, T/C [23] 87.8% | viability, T/C [24] 51.4% | viability, T/C [25] 90.5% | viability, T/C [26] 99.6% | viability, T/C [27] 85.8% | viability, T/C [28] 75.5% | viability, T/C [29] 78.6% | viability, T/C [30] 36% | viability, T/C [31] 54.8% | viability, T/C [32] 56.4% | viability, T/C [33] 58.2% | viability, T/C [34] 57.4% | viability, T/C [35] 62.3% | viability, T/C [36] 23.9%

CCC(CC)c1cc(NC2CCC(N)C2)n2nccc2n1 (stereo not given) + CCn1c(-c2cccnc2C(C)OC)c2c3cc(ccc31)N1CCOC(CC(NC(=O)C(C(C)C)N(C)C(=O)C3(F)CCN(C(=O)C#CC(C)(C)N(C)C)CC3)C(=O)N3CCCC(N3)C(=O)OCC(C)(C)C2)C1
0.36 µM: IC50 (second compound 0.0949 µM)
1.6 µM: IC50 (second compound 0.00949 µM)
1.04 µM: IC50 (second compound 0.003 µM)
inactive: viability, T/C [1] 104% | viability, T/C [2] 89.9% | viability, T/C [3] 79.8% | viability, T/C [4] 54% | viability, T/C [5] 5.17% | viability, T/C [7] 104% | viability, T/C [8] 96.8% | viability, T/C [9] 79.4% | viability, T/C [10] 58.2% | viability, T/C [11] 4.18% | viability, T/C [13] 87.5% | viability, T/C [14] 79.6% | viability, T/C [15] 80.6% | viability, T/C [16] 81.6% | viability, T/C [19] 100% | viability, T/C [20] 91.1% | viability, T/C [21] 77.5% | viability, T/C [22] 58.6% | viability, T/C [23] 4.55% | viability, T/C [25] 85.2% | viability, T/C [26] 65.5% | viability, T/C [27] 53.1% | viability, T/C [28] 37.2% | viability, T/C [29] 3.64% | viability, T/C [31] 41.6% | viability, T/C [32] 41.2% | viability, T/C [33] 27.3% | viability, T/C [34] 22.4%
1.09 µM: IC50 (second compound 0.03 µM)
active: viability, T/C [6] 0.33% | viability, T/C [12] 0.26% | viability, T/C [17] 4.34% | viability, T/C [18] 0.8% | viability, T/C [24] 0.32% | viability, T/C [30] 0.29% | viability, T/C [35] 3.57% | viability, T/C [36] 0.69%
< 0.0316 µM: IC50 (second compound 0.3 µM)
0.964 µM: IC50 (second compound 0.000949 µM)

CCN1CCN(Cc2ccc(Nc3ncc(F)c(-c4cc(F)c5nc(C)n(C(C)C)c5c4)n3)nc2)CC1 + CCn1c(-c2cccnc2C(C)OC)c2c3cc(ccc31)N1CCOC(CC(NC(=O)C(C(C)C)N(C)C(=O)C3(F)CCN(C(=O)C#CC(C)(C)N(C)C)CC3)C(=O)N3CCCC(N3)C(=O)OCC(C)(C)C2)C1
< 0.00316 µM: IC50 (second compound 0.3 µM)
> 1 µM: IC50 (second compound 0.000949 µM) | IC50 (second compound 0.003 µM) | IC50 (second compound 0.00949 µM) | IC50 (second compound 0.03 µM) | IC50 (second compound 0.0949 µM)
inactive: viability, T/C (second compound 0.000949 µM, first compound 0.00316 µM) 103% | viability, T/C (second compound 0.000949 µM, first compound 0.01 µM) 111% | viability, T/C [1] 91.9% | viability, T/C [2] 81.8% | viability, T/C [3] 79.4% | viability, T/C [4] 80.5% | viability, T/C (second compound 0.003 µM, first compound 0.00316 µM) 101% | viability, T/C (second compound 0.003 µM, first compound 0.01 µM) 97.3% | viability, T/C [7] 81.1% | viability, T/C [8] 104% | viability, T/C [9] 111% | viability, T/C [10] 76.8% | viability, T/C (second compound 0.00949 µM, first compound 0.00316 µM) 101% | viability, T/C (second compound 0.00949 µM, first compound 0.01 µM) 97.2% | viability, T/C [13] 93% | viability, T/C [14] 108% | viability, T/C [15] 82.4% | viability, T/C [16] 94.8% | viability, T/C (second compound 0.03 µM, first compound 0.00316 µM) 96.9% | viability, T/C (second compound 0.03 µM, first compound 0.01 µM) 98% | viability, T/C [19] 95.5% | viability, T/C [20] 75.4% | viability, T/C [21] 81.2% | viability, T/C [22] 79% | viability, T/C (second compound 0.0949 µM, first compound 0.00316 µM) 90.7% | viability, T/C (second compound 0.0949 µM, first compound 0.01 µM) 86.8% | viability, T/C [25] 86.3% | viability, T/C [26] 90.1% | viability, T/C [27] 84.8% | viability, T/C [28] 74.8% | viability, T/C (second compound 0.3 µM, first compound 0.00316 µM) 54.6% | viability, T/C (second compound 0.3 µM, first compound 0.01 µM) 40% | viability, T/C [31] 56.4% | viability, T/C [32] 54.7% | viability, T/C [33] 59.8% | viability, T/C [34] 54.5%

Cc1nc(N2CCC3(CC2)COC(C)C3N)c(CO)nc1Sc1ccnc(N)c1Cl (stereo not given) + CCn1c(-c2cccnc2C(C)OC)c2c3cc(ccc31)N1CCOC(CC(NC(=O)C(C(C)C)N(C)C(=O)C3(F)CCN(C(=O)C#CC(C)(C)N(C)C)CC3)C(=O)N3CCCC(N3)C(=O)OCC(C)(C)C2)C1
0.337 µM: IC50 (second compound 0.003 µM)
0.39 µM: IC50 (second compound 0.03 µM)
active: viability, T/C [30] 5.55% | viability, T/C [35] 6.25% | viability, T/C [36] 3.6%
0.402 µM: IC50 (second compound 0.00949 µM)
0.14 µM: IC50 (second compound 0.0949 µM)
0.548 µM: IC50 (second compound 0.000949 µM)
inactive: viability, T/C [1] 100% | viability, T/C [2] 68.4% | viability, T/C [3] 61.6% | viability, T/C [4] 43.1% | viability, T/C [5] 24.8% | viability, T/C [6] 13% | viability, T/C [7] 87.8% | viability, T/C [8] 76% | viability, T/C [9] 47.8% | viability, T/C [10] 31.7% | viability, T/C [11] 24.4% | viability, T/C [12] 11.9% | viability, T/C [13] 93.1% | viability, T/C [14] 74.8% | viability, T/C [15] 52.7% | viability, T/C [16] 36.9% | viability, T/C [17] 21.5% | viability, T/C [18] 13.6% | viability, T/C [19] 70.2% | viability, T/C [20] 58.6% | viability, T/C [21] 52.1% | viability, T/C [22] 42.4% | viability, T/C [23] 16.9% | viability, T/C [24] 12.7% | viability, T/C [25] 73.2% | viability, T/C [26] 56.8% | viability, T/C [27] 35.2% | viability, T/C [28] 23.2% | viability, T/C [29] 13.5% | viability, T/C [31] 34.1% | viability, T/C [32] 26.7% | viability, T/C [33] 22.8% | viability, T/C [34] 14.3%
< 0.0316 µM: IC50 (second compound 0.3 µM)

NC1c2ccccc2OC12CCN(c1cnc3c(N4CCCc5ncccc54)n[nH]c3n1)CC2 (stereo not given) + CCn1c(-c2cccnc2C(C)OC)c2c3cc(ccc31)N1CCOC(CC(NC(=O)C(C(C)C)N(C)C(=O)C3(F)CCN(C(=O)C#CC(C)(C)N(C)C)CC3)C(=O)N3CCCC(N3)C(=O)OCC(C)(C)C2)C1
0.0462 µM: IC50 (second compound 0.003 µM)
0.0387 µM: IC50 (second compound 0.03 µM)
active: viability, T/C [5] 4.73% | viability, T/C [6] 2.85% | viability, T/C [11] 6.54% | viability, T/C [12] 2.52% | viability, T/C [16] 8.74% | viability, T/C [17] 5.35% | viability, T/C [18] 2.44% | viability, T/C [23] 4.93% | viability, T/C [24] 1.68% | viability, T/C [28] 5.4% | viability, T/C [29] 2.95% | viability, T/C [30] 1.32% | viability, T/C [33] 7.14% | viability, T/C [34] 2.48% | viability, T/C [35] 2.04% | viability, T/C [36] 1.58%
0.0479 µM: IC50 (second compound 0.00949 µM)
0.0523 µM: IC50 (second compound 0.000949 µM)
< 0.0316 µM: IC50 (second compound 0.0949 µM) | IC50 (second compound 0.3 µM)
inactive: viability, T/C [1] 55.4% | viability, T/C [2] 43.5% | viability, T/C [3] 22.8% | viability, T/C [4] 12.4% | viability, T/C [7] 57.1% | viability, T/C [8] 35.3% | viability, T/C [9] 21.8% | viability, T/C [10] 10.3% | viability, T/C [13] 59.1% | viability, T/C [14] 33.1% | viability, T/C [15] 20.6% | viability, T/C [19] 53.6% | viability, T/C [20] 33.8% | viability, T/C [21] 18.5% | viability, T/C [22] 10.7% | viability, T/C [25] 42% | viability, T/C [26] 27.2% | viability, T/C [27] 12% | viability, T/C [31] 25.2% | viability, T/C [32] 10.4%
